{"source": "PubChem BioAssay AID1259411", "about": "(Chemical Carcinogenesis Research Information System (CCRIS), 2018)", "system": "rodent carcinogenicity bioassays, tumor incidence", "assay": "CCRIS carcinogenicity studies", "source_text": "The CCRIS database contains chemical records with carcinogenicity, mutagenicity, tumor promotion, and tumor inhibition test results. It was developed by the National Cancer Institute (NCI). Data are derived from studies cited in primary journals, current awareness tools, NCI reports, and other sources. Test results have been reviewed by experts in carcinogenesis and mutagenesis.\nCCRIS provides historical information from the years 1985 - 2011. It is no longer updated.\nThis is an archive assay for CCRIS carcinogenicity studies.", "note": "The source made the active and inactive calls. How the calls were made is not given here."}
{"smiles": "ClC[C@@H]1O[C@@H]1Cl", "values": [{"measurement": "carcinogen call", "setting": "Species: MOUSE, Strain/Sex: ICR/FEMALE, Route: DERMAL, Dose: 10 MG IN 0.1 ML ACETONE 3/WK FOR LIFE, Tumor Site: Type of Lesion: INTEGUMENTARY SYSTEM (SKIN): PAPILLOMA, SQUAMOUS CELL CARCINOMA", "value": "active; positive"}, {"measurement": "carcinogen call", "setting": "Species: MOUSE, Strain/Sex: ICR/FEMALE, Route: SUBCUTANEOUS, Dose: 500 UG IN 0.05 ML TRICAPRYLIN 1/WK FOR LIFE, Tumor Site: Type of Lesion: INJECTION SITE: FIBROSARCOMA", "value": "active; positive"}]}
{"smiles": "Nc1ccc(Oc2ccc(N)cc2)cc1", "values": [{"measurement": "carcinogen call", "setting": "Species: MOUSE, Strain/Sex: B6C3F1/FEMALE, Route: ORAL, Dose: 0, 0.015, 0.03, 0.08% IN DIET FOR 103 WK (STUDY DURATION: 104 WK), Dose: 0, 0.015, 0.03, 0.08% IN DIET FOR 103 WK (STUDY DURATION: 104 WK), Tumor Site: Type of Lesion: THYROID GLAND: FOLLICULAR ADENOMA, LIVER: ADENOMA, LIVER: HEPATOCELLULAR CARCINOMA, HARDERIAN GLAND: ADENOMA, Tumor Site: Type of Lesion: THYROID GLAND: FOLLICULAR ADENOMA, LIVER: ADENOMA, LIVER: HEPATOCELLULAR CARCINOMA, HARDERIAN GLAND: ADENOMA", "value": "active; positive"}, {"measurement": "carcinogen call", "setting": "Species: MOUSE, Strain/Sex: B6C3F1/FEMALE, Route: ORAL, Dose: 0, 150, 300, 800 PPM IN DIET, Dose: 0, 150, 300, 800 PPM IN DIET, Tumor Site: Type of Lesion: LIVER: HEPATOCELLULAR ADENOMA OR CARCINOMA, THYROID GLAND: FOLLICULAR CELL ADENOMA, HARDERIAN GLAND: ADENOMA, NOS, Tumor Site: Type of Lesion: LIVER: HEPATOCELLULAR ADENOMA OR CARCINOMA, THYROID GLAND: FOLLICULAR CELL ADENOMA, HARDERIAN GLAND: ADENOMA, NOS", "value": "active; positive"}, {"measurement": "carcinogen call", "setting": "Species: MOUSE, Strain/Sex: B6C3F1/MALE, Route: ORAL, Dose: 0, 0.015, 0.03, 0.08% IN DIET FOR 103 WK (STUDY DURATION: 104 WK), Dose: 0, 0.015, 0.03, 0.08% IN DIET FOR 103 WK (STUDY DURATION: 104 WK), Tumor Site: Type of Lesion: THYROID GLAND: FOLLICULAR HYPERPLASIA, HARDERIAN GLAND: ADENOMA", "value": "active; positive"}, {"measurement": "carcinogen call", "setting": "Species: MOUSE, Strain/Sex: B6C3F1/MALE, Route: ORAL, Dose: 0, 150, 300, 800 PPM IN DIET, Dose: 0, 150, 300, 800 PPM IN DIET, Tumor Site: Type of Lesion: LIVER: HEPATOCELLULAR ADENOMA OR CARCINOMA, HARDERIAN GLAND: ADENOMA, NOS", "value": "active; positive"}, {"measurement": "carcinogen call", "setting": "Species: RAT, Route: SUBCUTANEOUS, Tumor Site: Type of Lesion: LIVER", "value": "active; positive"}, {"measurement": "carcinogen call", "setting": "Species: RAT, Strain/Sex: F344/FEMALE, Route: ORAL, Dose: 0, 0.02, 0.04, 0.05% IN DIET FOR 103 WK (STUDY DURATION: 104 WK), Dose: 0, 0.02, 0.04, 0.05% IN DIET FOR 103 WK (STUDY DURATION: 104 WK), Tumor Site: Type of Lesion: THYROID GLAND: FOLLICULAR CARCINOMA, THYROID GLAND: FOLLICULAR ADENOMA, LIVER: NEOPLASTIC NODULE, LIVER: HEPATOCELLULAR, Tumor Site: Type of Lesion: THYROID GLAND: FOLLICULAR CARCINOMA, THYROID GLAND: FOLLICULAR ADENOMA, LIVER: NEOPLASTIC NODULE, LIVER: HEPATOCELLULAR", "value": "active; positive"}, {"measurement": "carcinogen call", "setting": "Species: RAT, Strain/Sex: F344/FEMALE, Route: ORAL, Dose: 0, 200, 400, 500 PPM IN DIET, Dose: 0, 200, 400, 500 PPM IN DIET, Tumor Site: Type of Lesion: LIVER: HEPATOCELLULAR CARCINOMA OR NEOPLASTIC NODULE, THYROID GLAND: FOLLICULAR CELL ADENOMA OR CARCINOMA", "value": "active; positive"}, {"measurement": "carcinogen call", "setting": "Species: RAT, Strain/Sex: F344/MALE, Route: ORAL, Dose: 0, 0.02, 0.04, 0.05% IN DIET FOR 103 WK (STUDY DURATION: 104 WK), Dose: 0, 0.02, 0.04, 0.05% IN DIET FOR 103 WK (STUDY DURATION: 104 WK), Tumor Site: Type of Lesion: THYROID GLAND: FOLLICULAR CARCINOMA, THYROID GLAND: FOLLICULAR ADENOMA, LIVER: NEOPLASTIC NODULE, LIVER: HEPATOCELLULAR, Tumor Site: Type of Lesion: THYROID GLAND: FOLLICULAR CARCINOMA, THYROID GLAND: FOLLICULAR ADENOMA, LIVER: NEOPLASTIC NODULE, LIVER: HEPATOCELLULAR", "value": "active; positive"}, {"measurement": "carcinogen call", "setting": "Species: RAT, Strain/Sex: F344/MALE, Route: ORAL, Dose: 0, 200, 400, 500 PPM IN DIET, Dose: 0, 200, 400, 500 PPM IN DIET, Tumor Site: Type of Lesion: LIVER: HEPATOCELLULAR CARCINOMA OR NEOPLASTIC NODULE, THYROID GLAND: FOLLICULAR CELL ADENOMA OR CARCINOMA", "value": "active; positive"}]}
{"smiles": "Oc1ccccc1O", "values": [{"measurement": "carcinogen call", "setting": "Species: MOUSE, Strain/Sex: B6C3F1/FEMALE, Route: ORAL, Dose: 0, 0.8% IN DIET FOR 96 WK (STUDY DURATION: 96 WK), Tumor Site: Type of Lesion: GLANDULAR STOMACH: ADENOMA", "value": "active; positive"}, {"measurement": "carcinogen call", "setting": "Species: MOUSE, Strain/Sex: B6C3F1/FEMALE, Route: ORAL, Dose: 0, 0.8% IN POWDERED BASAL DIET FOR 96 WK (STUDY DURATION: 96 WK)", "value": "inactive; negative"}, {"measurement": "carcinogen call", "setting": "Species: MOUSE, Strain/Sex: B6C3F1/MALE, Route: ORAL, Dose: 0, 0.8% IN DIET FOR 96 WK (STUDY DURATION: 96 WK), Tumor Site: Type of Lesion: GLANDULAR STOMACH: ADENOMA", "value": "active; positive"}, {"measurement": "carcinogen call", "setting": "Species: MOUSE, Strain/Sex: B6C3F1/MALE, Route: ORAL, Dose: 0, 0.8% IN POWDERED BASAL DIET FOR 96 WK (STUDY DURATION: 96 WK)", "value": "inactive; negative"}, {"measurement": "carcinogen call", "setting": "Species: RAT, Strain/Sex: F344/FEMALE, Route: ORAL, Dose: 0, 0.8% IN DIET FOR 104 WK (STUDY DURATION: 104 WK), Tumor Site: Type of Lesion: GLANDULAR STOMACH: ADENOMA, ADENOCARCINOMA", "value": "active; positive"}, {"measurement": "carcinogen call", "setting": "Species: RAT, Strain/Sex: F344/FEMALE, Route: ORAL, Dose: 0, 0.8% IN POWDERED BASAL DIET FOR 104 WK (STUDY DURATION: 104 WK), Tumor Site: Type of Lesion: GLANDULAR STOMACH: ADENOCARCINOMA", "value": "active; positive"}, {"measurement": "carcinogen call", "setting": "Species: RAT, Strain/Sex: F344/FEMALE, Route: ORAL, Dose: 0, 2% IN DIET FOR 104 WK (STUDY DURATION: 104 WK), Tumor Site: Type of Lesion: GLANDULAR STOMACH: ADENOCARCINOMA", "value": "active; positive"}, {"measurement": "carcinogen call", "setting": "Species: RAT, Strain/Sex: F344/MALE, Route: ORAL, Dose: 0, 0.1, 0.2, 0.4, 0.8% IN DIET FOR 104 WK (STUDY DURATION: 104 WK), Dose: 0, 0.1, 0.2, 0.4, 0.8% IN DIET FOR 104 WK (STUDY DURATION: 104 WK), Tumor Site: Type of Lesion: GLANDULAR STOMACH: ADENOMA, PANCREAS: ACINAR CELL ADENOMA", "value": "active; positive"}, {"measurement": "carcinogen call", "setting": "Species: RAT, Strain/Sex: F344/MALE, Route: ORAL, Dose: 0, 0.16% IN DIET FOR DURATION OF STUDY (STUDY DURATION: 104 WK), Tumor Site: Type of Lesion: GLANDULAR STOMACH: ADENOMA", "value": "active; positive"}, {"measurement": "carcinogen call", "setting": "Species: RAT, Strain/Sex: F344/MALE, Route: ORAL, Dose: 0, 0.8% IN DIET FOR 12, 24, 48, 72, OR 96 WK FOLLOWED BY BASAL DIET FOR 84, 72, 48, 24, AND 0 WK RESPECTIVELY (STUDY DUR, Tumor Site: Type of Lesion: STOMACH: ADENOMA, ADENOCARCINOMA", "value": "active; positive"}, {"measurement": "carcinogen call", "setting": "Species: RAT, Strain/Sex: F344/MALE, Route: ORAL, Dose: 0, 0.8% IN DIET FOR 104 WK (STUDY DURATION: 104 WK), Tumor Site: Type of Lesion: GLANDULAR STOMACH: ADENOMA, ADENOCARCINOMA", "value": "active; positive"}, {"measurement": "carcinogen call", "setting": "Species: RAT, Strain/Sex: F344/MALE, Route: ORAL, Dose: 0, 0.8% IN POWDERED BASAL DIET FOR 104 WK (STUDY DURATION: 104 WK), Tumor Site: Type of Lesion: GLANDULAR STOMACH: ADENOCARCINOMA", "value": "active; positive"}, {"measurement": "carcinogen call", "setting": "Species: RAT, Strain/Sex: F344/MALE, Route: ORAL, Dose: 0, 2% IN DIET FOR 104 WK (STUDY DURATION: 104 WK), Tumor Site: Type of Lesion: GLANDULAR STOMACH: ADENOCARCINOMA", "value": "active; positive"}, {"measurement": "carcinogen call", "setting": "Species: RAT, Strain/Sex: LEWIS/MALE, Route: ORAL, Dose: 0, 0.8% IN DIET FOR 104 WK (STUDY DURATION: 104 WK), Tumor Site: Type of Lesion: GLANDULAR STOMACH: ADENOMA, ADENOCARCINOMA", "value": "active; positive"}, {"measurement": "carcinogen call", "setting": "Species: RAT, Strain/Sex: SPRAGUE-DAWLEY/MALE, Route: ORAL, Dose: 0, 0.8% IN DIET FOR 104 WK (STUDY DURATION: 104 WK), Tumor Site: Type of Lesion: GLANDULAR STOMACH: ADENOMA, ADENOCARCINOMA, FORESTOMACH: PAPILLOMA", "value": "active; positive"}, {"measurement": "carcinogen call", "setting": "Species: RAT, Strain/Sex: WISTAR/MALE, Route: ORAL, Dose: 0, 0.8% IN DIET FOR 104 WK (STUDY DURATION: 104 WK), Tumor Site: Type of Lesion: GLANDULAR STOMACH: ADENOMA, ADENOCARCINOMA", "value": "active; positive"}, {"measurement": "carcinogen call", "setting": "Species: RAT, Strain/Sex: WKY/MALE, Route: ORAL, Dose: 0, 0.8% IN DIET FOR 104 WK (STUDY DURATION: 104 WK), Tumor Site: Type of Lesion: GLANDULAR STOMACH: ADENOMA", "value": "active; positive"}]}
